Laboratory results reported in patent publication EP1800684A1, “Novel alkyl phospholipid derivatives and uses thereof” (Zentaris GmbH, priority 2005, dated 2007).
In brackets after ≈: the same amount, converted by molar mass. Where two headings read alike, the source gives them in different places.

Tests used:
Type in all cases: cell-based
[1] = system: Candida parapsilosis (ATCC 22019); assay: Anti-fungal susceptibility test (microdilution), fungus D
Experimental: (§1) The antifungal activities of the test compounds (compounds of the invention and known prior art compounds) were measured according to standard microdilution methods (Cryptococcus/Aspergillus: Ghannoum et al., Journal of Clinical Microbiology 1992, 30 (11): 2881-2886; Candida: Reference method for broth dilution susceptibility testing of yeast: proposed standard, NCCLS document M27-P, National Committee for Clinical Laboratory Standards 1992, Villanova, Pa).
(§2) A serial dilution series starting from 64 µg/mL test compound per well down to 0.125 µg/mL test compound per well was applied for each test compound on each fungus. The MIC of each compound was defined as the concentration which produces no visible growth after 48 hours (Candida) and 72 hours (Cryptococcus, Aspergillus) of culture at 35° C.
(§3) The following fungi were assessed: • A) Candida albicans (ATCC 10231) • B) Candida albicans (ATCC 90028) • C) Candida albicans (strain TS3, Shrikantha et al., Journal of Bacteriology 2000, 182(6):1580-1591) • D) Candida parapsilosis (ATCC 22019) • E) Cryptocoocus neoformans (ATCC 90112) • F) Cryptocoocus neoformans (strain H99; Ganendren et al., Antimicrobial Agents and Chemotherapy, 2004, 48(5):1561-1569) • G) Cryptocoocus gattii (ATCC 32608) • H) Aspergillus fumigatus (ATCC 204305) • I) Aspergillus fumigatus (strain 322-384)

[2] = system: Plasmodium falciparum (strain 3D7); assay: In vitro drug susceptibility assay, protozoon D (3[H]-hypoxanthine method)
Experimental: (§4) Plasmodium falciparum strain K1 and strain 3D7 parasites were cultured according to Trager W and Jensen JB (Science 1976, 193: 673-675). In vitro drug susceptibility assays with the test compounds were carried out according to Korsinczky M et al. (Antimicrobial agents and chemotherapy 2000, 44(8): 2100-2108) and Fivelman QL et al. (Antimicrobial agents and chemotherapy 2004, 48(11): 4097-4102) using a ^3[H]-hypoxanthine radioisotope method. ED50 values were calculated with Msxlfit (IDBS).
(§5) The following protozoa were assessed: • A) Trypanosoma cruzi (Tulahuan-LACZ amstigotes in PEM, Lorente SO et al., Antimicrobial agents and chemotherapy 2004, 48(8): 2937-2950; Buckner et al., Infection and Immunity 1999, 67(1): 403-409; Buckner et al., Antimicrobial Agents and Chemotherapy 1996, 40(11): 2592-2597) • B) Trypanosoma brucei rhodesiense (strain STIB900, Lorente SO et al., Antimicrobial agents and chemotherapy 2004, 48(8): 2937-2950; Habtemariam S, BMC Pharmacology 2003, 3:6) • C) Plasmodium falciparum (strain K1, Korsinczky M et al., Antimicrobial agents and chemotherapy 2000, 44(8): 2100-2108; Thaitong S and Beale GH, Trans. R. Soc. Trop. Med. Hyg. 1981, 75: 271-273; Trager W and Jensen JB, Science 1976, 193: 673-675) • D) Plasmodium falciparum (strain 3D7, Mu et al., PLoS Biology 2005, 3(10): e335)

[3] = system: Candida albicans (strain TS3); assay: Anti-fungal susceptibility test (microdilution), fungus C; settings: no visible growth after 48 hours at 35° C
Experimental: as §1, §2, §3

[4] = system: Cryptocoocus gattii (ATCC 32608); assay: Anti-fungal susceptibility test (microdilution), fungus G; settings: fungus G; no visible growth after 72 hours at 35° C; read-out: MIC
Experimental: as §1, §2, §3

[5] = system: Candida albicans (ATCC 10231); assay: Anti-fungal susceptibility test (microdilution), fungus A
Experimental: as §1, §2, §3

[6] = system: Plasmodium falciparum (strain K1); assay: In vitro drug susceptibility assay, protozoon C (3[H]-hypoxanthine method)
Experimental: as §4, §5

[7] = system: Aspergillus fumigatus (strain 322-384); assay: Anti-fungal susceptibility test (microdilution), fungus I; settings: no visible growth after 72 hours at 35° C
Experimental: as §1, §2, §3

[8] = system: Cryptocoocus neoformans (strain H99); assay: Anti-fungal susceptibility test (microdilution), fungus F; settings: fungus F; no visible growth after 72 hours at 35° C; read-out: MIC
Experimental: as §1, §2, §3

[9] = system: Trypanosoma cruzi (Tulahuan-LACZ amstigotes in PEM); assay: In vitro drug activity assay, protozoon A (amastigotes in murine peritoneal macrophages, CPRG readout); settings: infected macrophages exposed for 3 days
Experimental: Murine (CD1) peritoneal macrophages were harvested 24 hours after starch induction and dispensed into 96-well plates at a concentration of 4 x 10^5 mL. After 24 hours, the cells were infected with Trypanosoma cruzi Tulahuan LAC-Z amastigotes (grown and cultured according to Buckner et al., Infection and Immunity 1999, 67(1): 403-409). 24 hours later, the infected cells were exposed to the test compounds (compounds of the invention as well as known prior art compounds) for 3 days and 50 µL of 500 µM CPRG-1% Nonidet P-40 was added to each well. The plates were read after 2 to 5 hours at 570 nm (Buckner et al., Antimicrobial Agents and Chemotherapy 1996, 40(11): 2592-2597). ED50 values were calculated with Msxlfit (IDBS).
as §5

[10] = system: Candida albicans (ATCC 90028); assay: Anti-fungal susceptibility test (microdilution), fungus B
Experimental: as §1, §2, §3

[11] = system: Cryptocoocus neoformans (ATCC 90112); assay: Anti-fungal susceptibility test (microdilution), fungus E
Experimental: as §1, §2, §3

[12] = system: Trypanosoma brucei rhodesiense (strain STIB900); assay: In vitro drug activity assay, protozoon B (bloodstream form trypomastigotes, Alamar Blue); settings: incubated for 72 hours
Experimental: Trypanosoma brucei rhodesiense STIB900 bloodstream form trypomastigotes were maintained in HMI-18 medium (Hirumi H, Hirumi K, J Parasitol. 1989, 75(6):985-989) with 15% heat-inactivated fetal calf serum at 37°C, 5% CO2, humidified atmosphere. Trypomastigotes were washed and resuspended in fresh medium at a concentration of 2 x 10^5 mL. Test compounds were given to the trypomastigotes and plates were incubated for 72 hours at 37°C, 5% CO2, humidified atmosphere. At 72 hours the plates were assessed microscopically before Alamar Blue was added (Raz et al., Acta Trop. 1997, 68: 139-147). Plates were read after 5 to 6 hours at EX/EM 530/585 nm with a filter cutoff at 550 nm. ED50 values were calculated with Msxlfit (IDBS).
as §5

[13] = system: Aspergillus fumigatus (ATCC 204305); assay: Anti-fungal susceptibility test (microdilution), fungus H
Experimental: as §1, §2, §3

[14] = system: KB/HeLa (ATCC CCL17, human cervix carcinoma); assay: XTT cytotoxicity assay, KB/HeLa cells; settings: 48 h, 2 days of continuous drug exposure
Experimental: (§6) Human tumor cell lines KB/HeLa (ATCC CCL17, human cervix carcinoma), PC3 (ATCC CRL1435, human prostate carcinoma) and RKOp21 (human colon adenocarcinoma) cells were used in an automated XTT screening assay for the assessment of cytotoxicity.
(§7) The XTT assay quantifies cellular metabolic activity which correlates with cell viability and cell number. Test compounds (selected compounds of the invention and known substances as controls) are dissolved in culture medium at 600µM and added to the tumor cells in 10 different concentrations in a semi-logarithmic fashion starting from 100 µM as highest concentration.
(§8) 48h later cellular metabolic activity of cells treated with test compounds is quantified by measurement of the absorbance at 490nm (conversion of XTT dye) in comparison to untreated control cells (100% viability).
(§9) KB/HeLa and PC3 cells were cultivated in RPMI medium supplemented with 10% heat inactivated fetal calf serum, 2 mM glutamine, 100 U/ml penicillin, and 100 µg/ml streptomycin. RKOp21 cells were grown in DMEM supplemented with 10% heat inactivated fetal calf serum, 2 mM glutamine, 100 U/ml penicillin, and 100 µg/ml streptomycin. All cells were cultured at 37°C in 5% CO2 humidified air.
(§10) On the first day of the experiment cells were harvested from exponential phase cultures by trypsination, counted and plated into 96 well flat-bottom micro titer plates depending on the cell line as listed below:
(§11) After a 24h recovery to allow the cells to resume exponential growth, the test compounds were diluted immediately prior to use and transferred in 25µl volume to the wells.
(§12) Following 2 days of continuous drug exposure 50µl of freshly prepared XTT-PMS solution (2% […] PMS in PBS + 98% 1 mg/ml XTT in RPMI 1640 without phenol red) was added to the wells. To measure the proportion of living cells, the cells were incubated for 3 h with XTT-PMS reagent at 37°C, 5% CO2, humidified atmosphere allowing to form the formazan salt. The amount of soluble formazan salt produced by cellular reduction of XTT is quantified by measuring the absorbance at 490nm using the Biomek® 2000 ELISA plate reader.
(§13) %-inhibition (cytotoxicity) of each test compound was calculated in relation to untreated control cells. Inhibition curves were generated and IC50 values calculated by using GraphPad Prism.

[15] = system: PC3 (ATCC CRL1435, human prostate carcinoma); assay: XTT cytotoxicity assay, PC3 cells; settings: PC-3, 48 h, 2 days of continuous drug exposure
Experimental: as §6, §7, §8, §9, §10, §11, §12, §13

[16] = system: RKOp21 (human colon adenocarcinoma) cells; assay: XTT cytotoxicity assay, RKOp21 cells; settings: 48 h, 2 days of continuous drug exposure
Experimental: as §6, §7, §8, §9, §10, §11, §12, §13

[17] = ATCC22019, no visible growth after 48 hours at 35° C, read-out: MIC
[18] = Candida albicans, read-out: MIC
[19] = Candida albicans, ATCC10231, no visible growth after 48 hours at 35° C, read-out: MIC
[20] = Aspergillus fumigatus, read-out: MIC
[21] = Candida albicans, ATCC90028, no visible growth after 48 hours at 35° C, read-out: MIC
[22] = fungus E, no visible growth after 72 hours at 35° C, read-out: MIC
[23] = Aspergillus fumigatus, ATCC204305, no visible growth after 72 hours at 35° C, read-out: MIC
[24] = no visible growth after 48 hours at 35° C

CCCCCCCCCCCCCCCCOP(=O)([O-])OC1CC[N+](C)(Cc2ccccc2)CC1 (stereo not drawn) [Compound 1, Phosphoric acid 1-benzyl-1-methyl-piperidin-4-yl ester hexadecyl ester]
MIC [1, 17]: 3 µg/mL (≈ 5.89 µM)
ED50 (µg/mL) [2]: 9,97 µg/mL
MIC [3, 18]: 1.5 µg/mL (≈ 2.94 µM)
MIC [4]: 1 µg/mL (≈ 1.96 µM)
MIC [5, 19]: 2 µg/mL (≈ 3.92 µM)
ED50 (µg/mL) [6]: 6,93 µg/mL
MIC [7, 20]: 2 µg/mL (≈ 3.92 µM)
MIC [8]: 2 µg/mL (≈ 3.92 µM)
ED50 (µg/mL) [9]: 1,71 µg/mL
MIC [10, 21]: 1 µg/mL (≈ 1.96 µM)
MIC [11, 22]: 1.5 µg/mL (≈ 2.94 µM)
ED50 (µg/mL) [12]: 18,80 µg/mL
MIC [13, 23]: 2 µg/mL (≈ 3.92 µM)

CCCCCCCCCCCCCCCCOP(=O)([O-])OC1CC[N+](C)(CCc2ccccc2)CC1 (stereo not drawn) [Compound 4, Phosphoric acid 1-methyl-1-phenethyl-piperidin-4-yl ester hexadecyl ester]
ED50 (µg/mL) [2]: 15,32 µg/mL
ED50 (µg/mL) [6]: 5,44 µg/mL
ED50 (µg/mL) [12]: 12,29 µg/mL

CCCCCCCCCCCCCCCCOCCCOP(=O)([O-])OCC[N+](C)(C)C [Compound 8, Phosphoric acid 3-hexadecyloxy-propyl ester 2-trimethylammonium-ethyl ester]
MIC [1, 17]: 0.75 µg/mL
MIC [3, 18]: 1 µg/mL
MIC [4]: 0.75 µg/mL
MIC [5, 19]: 0.75 µg/mL
MIC [7, 20]: 2 µg/mL
MIC [8]: 1.5 µg/mL
MIC [10, 21]: 0.75 µg/mL
MIC [11, 22]: 2 µg/mL
MIC [13, 23]: 2 µg/mL

CCCCCCCC/C=C\CCCCCCCCCCCCOP(=O)([O-])OC1CC[N+](C)(C)CC1 [Compound 17, Phosphoric acid 1,1-dimethyl-piperidin-4-yl ester (Z)-docos-13-enyl ester]
IC50 [14]: 16.6 µM
IC50 [15]: 18.3 µM
IC50 [16]: 32.5 µM

CCCCCCCC/C=C\CCCCCCCCOP(=O)(O)OCCN1CCCCC1 [Compound 19, Phosphoric acid (Z)-octadec-9-enyl ester 2-piperidin-1-yl-ethyl ester]
IC50 [14]: > 100 µM
IC50 [15]: > 100 µM
IC50 [16]: > 100 µM

CCCCCCCCCCOCCOCCOP(=O)([O-])OCC[N+]1(C)CCCCC1 [Compound 20, Phosphoric acid 2-(2-decyloxy-ethoxy)-ethyl ester 2-(1-methylpiperidin-1-yl)-ethyl ester]
IC50 [14]: > 100 µM
IC50 [15]: > 100 µM
IC50 [16]: > 100 µM

CCCCCCCCCCCCCCCCCCOP(=O)([O-])OCC[As+](C)(C)C [Compound 22]
MIC [1, 24]: 1 µg/mL
MIC [3]: 1 µg/mL
MIC [5, 24]: 0.5 µg/mL
MIC [7]: 2 µg/mL
MIC [10, 24]: 1 µg/mL
MIC ([13]; no visible growth after 72 hours at 35° C): 4 µg/mL

CCCCCCCC/C=C\CCCCCCCCCCCCOP(=O)([O-])OCC[N+](C)(C)C [ErPC, (13Z)-docosenylphosphocholine, reference compound]
MIC [1, 17]: > 64 µg/mL
MIC [3, 18]: > 64 µg/mL
MIC [4]: 1.5 µg/mL (≈ 3.06 µM)
MIC [5, 19]: > 64 µg/mL
MIC [7, 20]: > 64 µg/mL
MIC [8]: 3 µg/mL (≈ 6.13 µM)
MIC [10, 21]: > 64 µg/mL
MIC ([11]; 72 h): 4 µg/mL (≈ 8.17 µM)
MIC [13, 23]: > 64 µg/mL

O=C(Cn1ccnc1[N+](=O)[O-])NCc1ccccc1 [benznidazole, Benznidazole, reference compound]
ED50 (µg/mL) [9]: 0,22 µg/mL

CCCCCCCCCCCCCCCCOP(=O)([O-])OCC[N+](C)(C)C [miltefosine, reference compound]
IC50 [14]: 8.66 µM
IC50 [15]: 9.39 µM
IC50 [16]: 18 µM
ED50 (µg/mL) [9]: 0,63 µg/mL

CCCCCCCCCCCCCCCCCCOP(=O)([O-])OC1CC[N+](C)(C)CC1 [perifosine, octadecyl-1,1-dimethyl-piperidino-4-yl-phosphate, reference compound]
IC50 [14]: 2.37 µM
IC50 [15]: 3.22 µM
IC50 [16]: 3.31 µM
